Assay [1] has as its system BMDM. In words: Anti-osteoporosis activity in mouse BMDM cells assessed as inhibition of RANKL-induced osteoclastogenesis at 2 uM measured for 30 mins in presence of MCSF by TRAP staining based assay. Format: functional. As to conditions: for inhibition at 2 µM: Mus musculus, BMDM.
Assay [2] relates to BMDM. In words: Anti-osteoporosis activity in mouse BMDM cells assessed as inhibition of RANKL-induced osteoclastogenesis at 1 uM measured for 30 mins in presence of MCSF by TRAP staining based assay. The assay is classed as functional. The conditions noted are these: 0.5 h.
The test system of assay [3] is BMDM. Put plainly: Anti-osteoporosis activity in mouse BMDM cells assessed as inhibition of […]-induced osteoclastogenesis at 2 uM measured for 30 mins in presence of MCSF by TRAP staining based assay. Format: functional. As to conditions: 0.5 h.
Assay [4] deals with Mus musculus. In words: Anti-osteoporosis activity in OVX-induced osteoporosis C57BL/6 mouse model assessed as reduction in […] level in serum at 10 mg/kg, ip daily for 4 weeks. The assay is classed as functional, organism-based.
For assay [5], the system named is BMDM. Put plainly: Inhibition of RANKL/M-CSF-induced osteoclastogenesis in mouse BMDM cells assessed as decrease in bone resorption pit size at 1000 nM incubated for 6 days by microscopic analysis. The assay is classed as functional, cell-based. The conditions noted are these: time 6.0 day.

Usually inhibition stands for the relative decrease from the control value, in per cent.

Several values for one entry are separate records, joined by “and”; a condition that tells them apart may be missing. Equal values may be shown once. Activity calls are given as the source filed them. The rule behind the calls is not given here.

Consider `Cc1cc(OCC(=O)Nc2ccccc2N2CCOCC2)cc(C)c1Cl`, for which, in assay [1], the inhibition result was “inactive”.
With `O=C(CS(=O)(=O)c1ccccc1)Nc1cccc(Cl)c1N1CCOCC1`, the inhibition at 2 µM in assay [1] (0.5 h) came to 62.1%.
`CC(=O)Nc1ccc(S(=O)(=O)Oc2ccc(N)c(N3CCOCC3)c2)cc1`: the inhibition at 1 µM in assay [2] was determined as 11.3%.
As for `CCC(=O)Oc1ccc(NC(=O)COc2ccccc2Cl)c(N2CCOCC2)c1`, the inhibition at 1 µM in assay [2] turned out to be 32.8%.
On to `O=C(COc1ccccc1Cl)Nc1ccc(O)cc1N1CCOCC1`, for which the inhibition at 1 µM in assay [2] stood at 27.1%.
As for `COC(=O)c1ccc(N2CCOCC2)c(NC(=O)COc2cccc(C)c2)c1`, the inhibition at 1 µM in assay [2] was 52.5%. Besides, in assay [1] (0.5 h, 2 µM), the “inhibition (INH)” value is 94.58% and 52.52%. Moreover, in assay [3], the inhibition at 2 µM was found to be 2.77%.
Consider `Cc1ccc(S(=O)(=O)CC(=O)Nc2cc(Cl)ccc2N2CCOCC2)cc1`, for which the inhibition at 2 µM in assay [1] (0.5 h) stood at 30.9%.
For the compound `CCC(=O)N1CCN(c2ccccc2NC(=O)COc2ccccc2Cl)CC1`, the result in assay [4] was Active. The inhibition result in assay [5] is “Active”. In assay [2], the inhibition at 1 µM came out at 42%.
For the compound `O=C(COc1ccccc1Cl)Nc1ccc(OC(=O)c2ccco2)cc1N1CCOCC1`, the inhibition at 1 µM in assay [2] is 31.4%.
`CCCN(CCC)S(=O)(=O)c1ccc(C(=O)Oc2ccc(NC(=O)COc3ccccc3Cl)c(N3CCOCC3)c2)cc1`: the inhibition at 1 µM in assay [2] was found to be 21.6%.
For the compound `O=C(CSc1cccc2ccccc12)Nc1ccccc1N1CCOCC1`, the inhibition at 2 µM in assay [1] (0.5 h) stood at 61.3%.
On to `CC(C)(C)[Si](C)(C)Oc1ccc(NC(=O)COc2ccccc2Cl)c(N2CCOCC2)c1`, for which the inhibition at 1 µM in assay [2] was determined as 34.8%.

The values are drawn from ChEMBL document CHEMBL5625240, “Synthesis and evaluation of 2-NMPA derivatives as potential agents for prevention of osteoporosis in vitro and in vivo” (Eur J Med Chem, 2023).
